Here are results for one molecule from patent US6635030B1 (B.H.B. LLC, priority 1999, dated 2003).

The nature of the data set: Empiric porcine aortic contrast enhancement, dynamic CT after i.v. contrast injection. It counts as in vivo, pig. How it is done:
In order to test the mathematical solutions, a porcine study was conducted. All animal care and procedures performed were approved by the Institutional Animal Study Committee. […] Each session was separated by at least two days. Two pigs had all their sessions within a week, while the other two pigs had their first two and last sessions delays 4-5 weeks, which results in an increase in their weight to 35-40 kg in their last session. In each session, the pig was anesthetized, intubated, and underwent scanning for three or four sets of images obtained in random order. During scanning, each pig was ventilated with oxygen and low tidal volume to minimize breathing motion artifact. […] Each set of scans were 45-60 minutes apart to minimize the effect of prior contrast administration. All CT scanning was performed with a Somatom Plus-S scanner (Siemens Medical Systems, […].) using a one-second scanning time and a one-second interscan delay. Three types of injection schemes were tested: uniphasic, biphasic, and multiphasic. Biphasic injections were performed by a prior art power injector which was used in routine clinical CT scanning while uniphasic and multiphasic injections were conducted with a power injector which was invented for achieving the required protocols. This power injector was capable of delivering contrast medium in various uniphasic or multiphasic injection algorithms, as is explained in greater detail below. The multiphasic injection rate is determined by an initial injection rate and an exponential decay coefficient, as shown in FIG. 3. […] Most injections were performed with the initial injection rate of 2 mL/s. […] Three differential exponential decay coefficients (0.007, 0.017, 0.026) were tested. […] These were the three smallest discrete increments allowed in the prototype of the inventive power injector. Decay coefficient higher than 0.03 was not used because it was evident that a further increase in the coefficient would deviate further away from uniform vascular enhancements. A uniphasic injection was determined as being equivalent to a zero exponential decay coefficient where the injection rate remains constant at an initial injection rate throughout the injection duration. […] Approximately half of the total contrast volume was injected in each phase of the biphasic injections. […] Attenuation values of the aorta were measured from post-contrast scans (at the same level as the pre-contrast scans) using a circular region of interest (ROI) at the center of the aorta. Contrast enhancement was calculated as the absolute different in attenuation value between the pre- and post-contrast scans. […] Means and standard deviations were also computed. The results are now explained.

[1] abbreviates: 25 kg pig, 50 mL of 282 mgI/mL contrast medium, uniphasic 2 mL/sec.
[2] abbreviates: four pigs, 50 mL, 2 mL/s initial injection rate, decay constant 0.017.
Setting [3] is: four pigs, 70 mL, 2 mL/s initial injection rate, decay constant 0.017.

For the molecule `CNC(=O)c1c(I)c(NC(C)=O)c(I)c(C(=O)O)c1I.CNC[C@H](O)[C@@H](O)[C@H](O)[C@H](O)CO` [contrast medium, iothalmate meglumine], under setting [1], the “magnitude of the peak aortic enhancement (empiric)” value was 250 HU and the “time to the peak aortic enhancement (empiric)” value stood at 26 s. For the same molecule, under setting [2], the “increase of duration of enhancement within 90% of the peak (90%DCE), multiphasic vs uniphasic injection, mean” value is recorded as 81% and the “reduction of peak aortic enhancement (PA), multiphasic vs uniphasic injection, mean” value is given as 19%. Moreover, under setting [3], the “decrease of peak aortic enhancement (PA), multiphasic vs uniphasic injection” value is on record as 18% and the “increase of duration of enhancement within 90% of the peak (90%DCE), multiphasic vs uniphasic injection” value is reported as 94%.
